In doi:10.1101/2025.08.20.670845v1 (biorxiv, 2025):

Tests used:
Assay in all cases: G-Flamp2 cAMP biosensor fluorescence in HeLa cells expressing the receptor
Type in all cases: cell-based
AgOctβ2R (AgOctβ2) [1] = target: T1, AgOctβ2R (AgOctβ2) (Anopheles gambiae, UniProt F5HKI1)
T1 sequence (F5HKI1 1-526): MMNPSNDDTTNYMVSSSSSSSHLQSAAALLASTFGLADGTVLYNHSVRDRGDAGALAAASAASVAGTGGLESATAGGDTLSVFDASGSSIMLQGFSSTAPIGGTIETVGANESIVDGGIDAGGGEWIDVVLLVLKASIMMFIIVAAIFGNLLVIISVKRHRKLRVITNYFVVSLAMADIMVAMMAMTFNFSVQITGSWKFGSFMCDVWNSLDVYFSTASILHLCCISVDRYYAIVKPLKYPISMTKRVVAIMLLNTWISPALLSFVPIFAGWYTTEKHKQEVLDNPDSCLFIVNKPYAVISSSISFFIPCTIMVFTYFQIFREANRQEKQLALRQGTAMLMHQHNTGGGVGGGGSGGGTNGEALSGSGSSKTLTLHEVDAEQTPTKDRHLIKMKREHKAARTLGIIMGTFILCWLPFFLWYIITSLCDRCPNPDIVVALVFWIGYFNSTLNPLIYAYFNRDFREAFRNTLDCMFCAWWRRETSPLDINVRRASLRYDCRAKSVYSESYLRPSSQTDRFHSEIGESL

VdOctβ2 = target: T2, VdOctβ2 (Varroa destructor, UniProt A0A7M7KEY3)
T2 sequence (A0A7M7KEY3 1-439): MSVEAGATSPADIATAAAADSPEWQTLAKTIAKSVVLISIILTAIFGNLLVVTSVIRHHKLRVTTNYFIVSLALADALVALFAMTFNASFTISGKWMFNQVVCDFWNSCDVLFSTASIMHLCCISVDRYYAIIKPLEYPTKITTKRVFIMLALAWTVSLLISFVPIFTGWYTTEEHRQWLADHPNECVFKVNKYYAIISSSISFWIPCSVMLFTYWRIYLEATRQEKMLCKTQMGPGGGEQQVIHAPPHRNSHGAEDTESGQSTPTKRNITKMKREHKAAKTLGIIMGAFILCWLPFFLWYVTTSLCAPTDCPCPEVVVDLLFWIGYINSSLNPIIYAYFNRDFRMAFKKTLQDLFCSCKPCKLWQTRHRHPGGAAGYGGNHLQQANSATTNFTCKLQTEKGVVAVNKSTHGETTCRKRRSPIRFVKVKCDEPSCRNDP

AgOctβ2R (AgOctβ2) [2] = target: T3, AgOctβ2R (AgOctβ2) (Anopheles gambiae, UniProt F5HKI1, L290E)
T3 sequence (F5HKI1 1-526 L290E): T1 sequence (F5HKI1 1-526)

AgOctβ2R (AgOctβ2) [3] = target: T4, AgOctβ2R (AgOctβ2) (Anopheles gambiae, UniProt F5HKI1, N432C)
T4 sequence (F5HKI1 1-526 N432C): T1 sequence (F5HKI1 1-526)

AmOctβ2 = target: T5, AmOctβ2 (Apis mellifera, UniProt A0A7M7GMY8)
T5 sequence (A0A7M7GMY8 1-438): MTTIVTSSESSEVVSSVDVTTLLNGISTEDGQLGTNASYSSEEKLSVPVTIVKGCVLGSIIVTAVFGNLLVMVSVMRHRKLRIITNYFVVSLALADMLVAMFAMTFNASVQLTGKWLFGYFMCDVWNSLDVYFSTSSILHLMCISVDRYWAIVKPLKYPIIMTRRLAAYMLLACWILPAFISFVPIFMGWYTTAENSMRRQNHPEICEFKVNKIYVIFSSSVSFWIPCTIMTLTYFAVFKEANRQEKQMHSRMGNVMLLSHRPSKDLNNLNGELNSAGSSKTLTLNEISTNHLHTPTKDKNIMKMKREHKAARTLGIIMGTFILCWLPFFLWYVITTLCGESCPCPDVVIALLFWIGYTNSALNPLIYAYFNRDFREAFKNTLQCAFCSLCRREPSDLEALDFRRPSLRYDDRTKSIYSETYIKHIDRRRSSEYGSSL

Structure (SMILES)	EC50 (AgOctβ2R (AgOctβ2) [1]) [nM]	EC50 (VdOctβ2) [nM]	EC50 (AgOctβ2R (AgOctβ2) [2]) [nM]	EC50 (AgOctβ2R (AgOctβ2) [3]) [nM]	EC50 (AmOctβ2) [nM]
Cc1ccc(/N=C/N(C)/C=N/c2ccc(C)cc2C)c(C)c1 [amitraz]	10.8	1.9	85.4	118	12.1
NCC(O)c1ccc(O)cc1 (stereo not drawn) [octopamine]	14.7	47.1	–	57.3	45.6
